Source: patent US20100062465A1, “Detection of Histone Deacetylase Inhibition” (priority 2006, published 2010)
Structures can show the parent of a compound that is named as a salt.

What was measured:
PC3 cells = assay: GC-MS analysis of TFA in extracellular medium; format: cell-based, human
Description: To assess build-up of TFA in medium, samples of extracellular medium were collected and analyzed using gas chromatography-mass spectroscopy (GC-MS). In order to be able to use standard capillary GC-MS, TFA had to be derivatized. This was done using a modification of the procedure of Scott et al. (Scott B F, Mactavish D, Spencer C, Strachan W M J, Muir D C G. Haloacetic acids in Canadian lake waters and precipitation. Environmental Science & Technology 2000;34:4266-72) as follows. One ml of sample, or TFA standard in medium, was treated with 20 mg NaCl, 60 μL HCl, and 30 μl each of 100 mM 1,3-dicyclohexylcarbohiimide (Sigma-Aldrich Chemical Co., MO. USA) and 2,4-difluoroaniline (Sigma-Aldrich Chemical Co., MO. USA) and adjusted to a final volume of 1.320 ml in ethyl acetate. Mixture was vortexed for 60 minutes at room temperature; an additional 50 mg of NaCl added and sample briefly vortexed. Following phase separation the organic layer was removed and stored. The aqueous phase was further extracted twice with 200 μl of ethyl acetate. All three ethyl acetate extracts were combined and treated with 50 μl 3M HCl and 50 μL saturated anhydrous sodium sulfate (Na2SO4), vortexed and another 20 mg of Na2SO4 added and mixed. The organic phase was then evaporated to dryness under a dry nitrogen gas stream. The residue was dissolved in 250 μL of toluene and transferred into sample vials for analysis. Three microliters of sample extract were analyzed using an Agilent 6890N GC coupled to 5973N MSD in splitless injection mode. TFA was resolved using a Supleco Omegawax 250 capillary column (30 m×0.25 mm). Column temperature was 100° C. for one minute, ramping to 230° C. at 25° C. per minute and then held at 230° C. for two minutes. Detection was performed in EI positive mode monitoring the m/z 225 ion.

[1] = In vivo toxicity of BLT after intraperitoneal injection; conditions: intraperitoneal 100 mg/kg once a week on three subsequent weeks
subcutaneous PC3 tumors = assay: In vivo 19F MRS of BLT in subcutaneous PC3 tumors; conditions: intraperitoneal 100 mg/kg, 4.7 T
Procedure: As expected, the TFA peak could not be easily resolved in our preliminary in vivo studies. Intratumoral BLT levels may be higher in HDACI-treated tumors compared to controls, and therefore tumoral BLT levels may be used to assess HDAC activity in vivo. Downstream metabolic biomarkers also may be assessed in our preliminary studies. We were able to acquire a ^31P spectrum from PC3 subcutaneous tumors in 30 minutes providing a means for monitoring PC levels. This is consistent with previous studies in which an increase in PC could be monitored as an indicator of response to 17AAG treatment. ^1H MRS, with its greater sensitivity compared to ^31P, could also be used to monitor the total choline signal as a downstream metabolic marker of response to HDAC inhibition.

[2] = Solubility in growth medium; format: physicochemical; conditions: dissolved in DMSO first
Procedure: Note that controls were treated with DMSO in order to clearly identify effects which are due to the compound being investigated rather than its vehicle (DMSO). FSAHA dose was based on previous findings (Butler L M, Agus D B, Scher H I, et al. Suberoylanilide hydroxamic acid, an inhibitor of histone deacetylase, suppresses the growth of prostate cancer cells in vitro and in vivo. Cancer Res 2000 September 15;60(18):5165-70).

Hsp70 = assay: Western blot analysis of protein levels; format: cell-based, human; conditions: PC3 cells, 10 μM FSAHA in the presence of 1 mM BLT
Procedure: (§1) PC3 cells were lysed using cell lysis buffer (0.1% NP-40, 50 mM HEPES (pH 7.4), 250 mM NaCl, 1 mM dithiothreitol, 1 mM EDTA, 1 mM NaF, 10 mM β-glycerophosphate, 0.1 mM sodium orthovanadate, 1 μl/ml of protease inhibitor cocktail set III (Calbiochem, USA) and 1 mM phenylmethylsulfonyl fluoride). Lysates were centrifuged at 12,000 rpm for 10 min (4° C.), the protein supernatant collected and total protein concentrations determined using Biorad DC Protein assay reagents (Biorad, CA, USA). Proteins were separated by sodium do-decyl sulfate-polyacrylamide gel electrophoresis using 10% gels and transferred electrophoretically to 0.45 μm Nitrocellulose membranes. Membranes were blocked in blocking buffer containing 5% non-fat dry milk in Tris buffered saline (pH 7.6) and 0.1% Tween-20 and incubated overnight at 4° C. with primary antibodies as follows. c-Raf, 1:1000, (Cell Signaling Technology (CST), MA, USA), Cdk4, 1:2000 (CST, MA, USA), Hsp70, 1:2000 (Stressgen, Canada) and GAPDH, 1:5000 (Stressgen, Canada). This was followed by 1 hour incubation with horseradish peroxidase-conjugated secondary anti-rabbit (CST MA, USA) and anti-mouse (CST, MA, USA) antibodies at dilutions of 1:1000 and 1:2000 respectively. Membranes were […] with enhanced chemiluminescence reagents (LumiGLO & Peroxide, CST MA. USA) for 1 minute and exposed to hyperfilm (Amersham Biosciences, USA), which was developed on a Konica SRX-101 automatic developer (Konica, Tokyo, Japan).

c-Raf-1 = assay: Western blot analysis of protein levels; format: cell-based, human; conditions: PC3 cells, 10 μM FSAHA in the presence of 1 mM BLT
Procedure: as §1

cdk4 = assay: Western blot analysis of protein levels; format: cell-based, human; conditions: PC3 cells, 10 μM FSAHA in the presence of 1 mM BLT
Procedure: as §1

Row | SMILES | Level of TFA in cellular growth medium (PC3 cells; PC3 control cells, 1 mM BLT alone) | Toxicity to the animal [1] | Time the BLT signal remained detectable within the tumor region (subcutaneous PC3 tumors) | MRS detectability in tumor (subcutaneous PC3 tumors; temporal resolution 5 minutes) | Solubility in growth medium [2] | Average lowering of TFA in medium compared to controls (PC3 cells; 10 μM FSAHA-treated PC3 cells) | Level of TFA in cellular growth medium (PC3 cells; PC3 cells, 10 μM FSAHA in the presence of 1 mM BLT) | Lowering of TFA in medium calculated from the BLT increase (PC3 cells; assuming all TFA from BLT cleavage is removed into the medium, 10 μM FSAHA) | Induction of Hsp70 (Western blot) (Hsp70) | c-Raf-1 protein level (Western blot) (c-Raf-1) | cdk4 protein level (Western blot) (cdk4)
1 | CC(C)(C)OC(=O)N[C@@H](CCCCNC(=O)C(F)(F)F)C(=O)O [BLT, Boc-Lys-TFA-OH] | 5 ± 0.4 µg/mL | no detectable toxicity | over 2 hours | MRS visible BLT signal | low solubility |  |  |  |  |  | 
2 | O=C(CCCCCCC(=O)Nc1ccc(F)cc1)NO [FSAHA, 4-Fluorosuberanilohydroxamic acid] |  |  |  |  |  | 1.6 µg/mL | 3.4 ± 0.7 µg/mL | 1.3 µg/mL | not observed | depletion | depletion
